Among the test systems are DLD-1; DMS-114; DMS-273; HOP-18; KM-20L2; LXFL 529; RXF 631; SNB-78; XF498.
Holding throughout (test): NCI anticancer screen, dose series, 48 h

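1) Cells in 96-well plates. 2) Compound, 48 h, 5 concentrations. 3) Linear interpolation between surrounding doses. 4) Unreached endpoint = highest concentration. GI50 marks 50% less growth.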 Active and inactive are the calls of the source. No stated cut-off is given here; in the data, active = GI50 up to about 1.1 µM and inactive = higher.

Regarding `C#CCN(Cc1ccc2nc(-c3ccccc3)c(Cl)nc2c1)c1cc(OC)c(OC)c(OC)c1`, the GI50 in the experiment on DLD-1 is > 100 µM (inactive); in the experiment on DMS-114 it was 14.3 µM (inactive); in the experiment on DMS-273, 99.5 µM (inactive); in the experiment on HOP-18 it was > 100 µM (inactive); in the experiment on KM-20L2 it was > 100 µM (inactive); with LXFL 529, > 100 µM (inactive). Moreover, the GI50 with RXF 631 and with SNB-78 was > 100 µM (inactive) throughout.
`Nc1nc(Cl)cc(NCCCCCCCCCCNc2cc(Cl)nc(N)n2)n1`: the GI50 in the experiment on DLD-1 is 6.5 µM (inactive); in the experiment on DMS-273, 4.35 µM (inactive); with HOP-18, 58.3 µM (inactive); in the experiment on KM-20L2, 5.21 µM (inactive); in the experiment with LXFL 529, 1.27 µM (inactive); in the experiment with RXF 631, 5.3 µM (inactive). Besides, the GI50 was 0.0638 µM (active) with SNB-78 and 1.25 µM (inactive) in the experiment with XF498.
`COC(=O)C(C)Oc1ccc(O)cc1` (stereo not drawn): the GI50 was > 100 µM (inactive) with DLD-1; 19.6 µM (inactive) in the experiment with DMS-114; > 100 µM (inactive) in the experiment on DMS-273; > 100 µM (inactive) in the experiment on HOP-18; > 100 µM (inactive) in the experiment on KM-20L2; > 100 µM (inactive) in the experiment on LXFL 529. In addition, the GI50 in the experiment with RXF 631 and with SNB-78 was > 100 µM (inactive) throughout.
As to `CC(C)=Cc1cc(C(=O)Nc2ccc(Cl)c(Cl)c2)nc(N)n1`, the GI50 in the experiment on DLD-1 was > 100 µM (inactive); in the experiment on DMS-114, > 100 µM (inactive); with DMS-273, > 100 µM (inactive); in the experiment on HOP-18, 78.3 µM (inactive); in the experiment with KM-20L2 it was > 100 µM (inactive); with LXFL 529, > 100 µM (inactive). Further, the GI50 with RXF 631, in the experiment with SNB-78 and with XF498 was > 100 µM (inactive) each time.
As for `C1CN2N3CCCC23C1` (stereo not drawn), the GI50 with DLD-1, in the experiment with DMS-114, with DMS-273, with HOP-18, in the experiment on KM-20L2 and in the experiment with LXFL 529 was > 100 µM (inactive) in each case. Also, the GI50 with SNB-78 and in the experiment on XF498 was > 100 µM (inactive) in each case.
Consider `CN(C)CC(/C(Cc1ccccc1)=N\NC(=O)c1ccncc1)c1ccccc1` (stereo not drawn), for which the GI50 with DLD-1 is 49.1 µM (inactive); in the experiment with DMS-114, 22.5 µM (inactive); in the experiment on KM-20L2, 27 µM (inactive); in the experiment with LXFL 529, 36.1 µM (inactive); with RXF 631 it was 40.7 µM (inactive); in the experiment on XF498 it was 29.4 µM (inactive).
On to `O=C1C=Cc2noc3cccc1c23`, for which the GI50 with DLD-1 was 1.66 µM (inactive); in the experiment on DMS-114, 2.07 µM (inactive); in the experiment on DMS-273, 6.61 µM (inactive); with HOP-18, 18.7 µM (inactive); in the experiment on KM-20L2, 15.5 µM (inactive); with LXFL 529, 1.94 µM (inactive). Moreover, the GI50 was 13.8 µM (inactive) in the experiment on RXF 631 and 2.86 µM (inactive) in the experiment on SNB-78.
For `CC(C)COC(=O)c1ccc(/N=C\c2ccc(/C=N/c3ccc(C(=O)OCC(C)C)cc3)cc2)cc1`, the GI50 with DLD-1, in the experiment with DMS-273, in the experiment on KM-20L2, in the experiment with LXFL 529, with RXF 631 and in the experiment on SNB-78 was > 100 µM (inactive) throughout. In addition, the GI50 in the experiment with XF498 is > 100 µM (inactive).
With `O=C(N[C@@H]1C=CCC[C@@H]1c1ccccc1)OCc1ccccc1`, the GI50 is 23.7 µM (inactive) in the experiment with DLD-1; 21.7 µM (inactive) in the experiment with DMS-114; 16.4 µM (inactive) in the experiment on DMS-273; 19.2 µM (inactive) in the experiment on HOP-18; 20 µM (inactive) in the experiment with KM-20L2; 18.8 µM (inactive) in the experiment with LXFL 529. In addition, the GI50 is 32.5 µM (inactive) in the experiment with SNB-78 and 19 µM (inactive) in the experiment with XF498.
Turning to `COc1cc(/C=C(\NC(=O)c2ccccc2)c2nc3cncnc3[nH]2)cc(OC)c1OC`, the GI50 with DLD-1, in the experiment with DMS-273, with KM-20L2, in the experiment on LXFL 529, with RXF 631 and in the experiment on SNB-78 was > 100 µM (inactive) throughout. Besides, the GI50 in the experiment with XF498 was > 100 µM (inactive).
In the case of `Cc1ccc2nc(NC(=O)C(=O)C(C#N)c3ccc(Cl)cc3)sc2c1` (stereo not drawn), the GI50 in the experiment on DMS-114 is > 50 µM (inactive); with DMS-273 it was > 50 µM (inactive); in the experiment with HOP-18, 0.265 µM (active); in the experiment with KM-20L2, > 50 µM (inactive); in the experiment on LXFL 529 it was > 50 µM (inactive); with SNB-78, > 50 µM (inactive). Further, in the experiment on XF498, the GI50 is > 50 µM (inactive).
Turning to `NCCNC(=O)c1cccc2cc3ccccc3nc12`, the GI50 in the experiment on DLD-1 was 2.77 µM (inactive); in the experiment on DMS-114, 1.77 µM (inactive); in the experiment with DMS-273 it was 2.3 µM (inactive); in the experiment on HOP-18, 14.7 µM (inactive); in the experiment on KM-20L2 it was 1.61 µM (inactive); with LXFL 529 it was 4.95 µM (inactive). Besides, the GI50 was 4.47 µM (inactive) with RXF 631, 8.63 µM (inactive) in the experiment on SNB-78 and 2.04 µM (inactive) in the experiment on XF498.
Consider `O=C(CC1=Nc2nnc(-c3nnc4n3C(=O)C(CC(=O)C3CC3)=N4)n2C1=O)C1CC1`, for which the GI50 with DLD-1, in the experiment on DMS-114, in the experiment on DMS-273, in the experiment on KM-20L2, with LXFL 529 and in the experiment on SNB-78 was > 100 µM (inactive) throughout.
As to `CC(C)Cc1ccc(C(C)/C=C2\CCC(CN(C)C)C2=O)cc1` (stereo not drawn), the GI50 was 10.7 µM (inactive) in the experiment with DLD-1; 19.2 µM (inactive) in the experiment on DMS-114; 17.6 µM (inactive) with HOP-18; 24.3 µM (inactive) in the experiment on KM-20L2; 9.35 µM (inactive) in the experiment with LXFL 529; 17.5 µM (inactive) with SNB-78. In the experiment with XF498, the GI50 is 20 µM (inactive).
As for `O=C(CCc1ccccc1)On1nnc2ccccc2c1=O`, the GI50 with DLD-1, in the experiment with DMS-114, with DMS-273, in the experiment on KM-20L2, in the experiment with LXFL 529 and in the experiment on SNB-78 was > 100 µM (inactive) throughout.
As for `CC(=O)OCC(=O)[C@@]1(O)CC[C@H]2[C@@H]3C[C@H](C)C4=CC(=O)C=C[C@]4(C)[C@@]3(F)[C@@H](O)C[C@@]21C`, the GI50 with DLD-1, in the experiment on DMS-114, in the experiment with DMS-273, in the experiment with KM-20L2, in the experiment on RXF 631 and in the experiment with SNB-78 was > 100 µM (inactive) throughout. The GI50 in the experiment with XF498 was > 100 µM (inactive).
In the case of `CCOC(=O)C(=O)C=P(c1ccccc1)(c1ccccc1)c1ccccc1`, the GI50 in the experiment on DLD-1, in the experiment on DMS-114, in the experiment on DMS-273, in the experiment with HOP-18, in the experiment on KM-20L2 and in the experiment with LXFL 529 was > 100 µM (inactive) in each case. Besides, the GI50 with RXF 631 and in the experiment on SNB-78 was > 100 µM (inactive) each time.
Turning to `C/C(=N\NS(=O)(=O)c1ccc(C)cc1)c1ccc[n+]([O-])n1`, the GI50 in the experiment on DLD-1 was 50.1 µM (inactive); in the experiment on DMS-114, > 100 µM (inactive); in the experiment with DMS-273 it was > 100 µM (inactive); with HOP-18 it was > 100 µM (inactive); with KM-20L2 it was > 100 µM (inactive); in the experiment with LXFL 529, 45.2 µM (inactive). The GI50 with XF498 was > 100 µM (inactive).
Regarding `Cc1c(C(=O)/C=C/c2cccc3ccccc23)[n+]([O-])c2ccccc2[n+]1[O-]`, the GI50 was 10.6 µM (inactive) with DLD-1; 4.85 µM (inactive) in the experiment with DMS-114; 11.7 µM (inactive) in the experiment with DMS-273; 14.4 µM (inactive) in the experiment on HOP-18; 14.6 µM (inactive) in the experiment on KM-20L2; 8.02 µM (inactive) in the experiment with LXFL 529. Also, the GI50 with RXF 631 was 18.1 µM (inactive); with SNB-78, 6.84 µM (inactive).
`COC1C(OC(=O)/C=C/C=C/C=C/C=C\C(=O)O)CCC2(CO2)C1C1(C)OC1CC=C(C)C` (stereo not drawn): the GI50 in the experiment with DLD-1, in the experiment with DMS-114, in the experiment on DMS-273, in the experiment with KM-20L2, in the experiment on LXFL 529 and in the experiment with RXF 631 was > 100 µM (inactive) throughout. The GI50 in the experiment on XF498 is > 100 µM (inactive).
As to `O=C1C2c3[nH]c4ccccc4c3C3CCCC3C2C(=O)N1c1ccccc1` (stereo not drawn), the GI50 in the experiment on DLD-1 is > 100 µM (inactive); in the experiment with DMS-114, > 100 µM (inactive); in the experiment with DMS-273, > 100 µM (inactive); with LXFL 529 it was > 100 µM (inactive); with SNB-78 it was > 100 µM (inactive); with XF498, 12 µM (inactive).
With `COc1ccc(OC)c(N2CC(N)C2=O)c1` (stereo not drawn), the GI50 in the experiment with DMS-273, with HOP-18, in the experiment with KM-20L2, in the experiment on RXF 631 and in the experiment with XF498 was > 100 µM (inactive) throughout.
Take `C[C@H](CCC1SC1(C)C)C1CCC2(C)C3=C(CC[C@]12C)[C@@]1(C)CC[C@H](O)C(C)(C)C1CC3` (stereo partly drawn): the GI50 with DLD-1, with DMS-114, with DMS-273, with HOP-18, with KM-20L2 and in the experiment with LXFL 529 was > 100 µM (inactive) in each case. Also, in the experiment on XF498, the GI50 was > 100 µM (inactive).
For `C[C@@]1(Cc2ccccc2)C(=O)N2[C@@H](CO)C(c3ccccc3)O[C@]2(C)c2ccccc21` (stereo partly drawn), the GI50 with DLD-1, in the experiment with DMS-114, in the experiment on DMS-273, in the experiment on KM-20L2, with LXFL 529 and with SNB-78 was > 100 µM (inactive) each time.

The values above are taken from ChEMBL document CHEMBL1201862, “PubChem BioAssay data set” (2004).
